Tests used:
[1] = tested on: X4-tropic HIV-1 P59S isolate; experiment: Dose-dependent inhibition of infection of P4R5 indicator cells, P59S isolate; assay type: cell-based; settings: 2 days after infection
Protocol: (§1) P4R5 indicator cells were infected in the presence of the shown concentrations of VIRIP, and the β-galactosidase activity was measured in the cell extract 2 days after the infection.
(§2) In order to quantify the inhibitory effect of the substance according to the invention more precisely, P4R5 indicator cells were infected with the X4-tropic HIV-1 P59S isolate and the R5-tropic 92TH isolate in the presence of different doses of VIRIP.

R5-tropic 92TH isolate = experiment: Dose-dependent inhibition of infection of P4R5 indicator cells, 92TH isolate; assay type: cell-based, HIV-1
Protocol: as §1, §2

R5-tropic forms = experiment: Replication of HIV isolates in human PBMC (RT activity), R5-tropic forms; assay type: cell-based; settings: compared with X4-tropic and dual-tropic variants
Protocol: (§3) FIG. 5: VIRIP inhibits the replication of various HIV isolates with different cell- and co-receptor-tropisms in human PBMC. Prestimulated PBMC were treated with the various HIV-1 isolates (10 ng of p27 antigen) or a chimeric onco-lentivirus (Mu-HIV) in the presence of the VIRIP concentrations shown. Viral replication was determined by measuring the reverse transcriptase activity in the cell culture supernatant.
(§4) The inhibitory effects on R5-tropic forms were lesser. A chimeric onco-lentivirus (Mu-HIV) carrying the MLV envelope protein was not inhibited (FIG. 5, bottom).

[2] = tested on: X4/R5-tropic HIV-1 NL4-3 V3 variants; experiment: Infection of P4R5 indicator cells with NL4-3 V3 recombinants, X4/R5-tropic variants; assay type: cell-based; settings: 50 ng of p24, luciferase test
From the text: (§5) FIG. 3: The V3 loop of the X4-tropic NL43 clone was exchanged for the corresponding sequences of the HIV-1 isolates shown. Thus, the recombinant viruses are distinguished exclusively in the V3 loop. In the right panel, the observed inhibitors effect (%), the overall charge of the V3 region and the co-receptor-tropism are shown. At the bottom, the consensus sequence (SEQ ID NO: 6) is shown.
(§6) The V3 loop of the X4-tropic NL4-3 clone was replaced by the corresponding region of a number of primary HIV-1 isolates. […] To determine the inhibitory influence of VIRIP on these variants, P4R5 indicator cells were examined. P4R5 cells express both CCR5 and CXCR4 and contain the luciferase gene under the control of HIV-1 LTR. This cell line was infected with the various recombinant viruses (50 ng of p24) in the presence and absence of VIRIP, and the infection was quantified using the luciferase test.

[3] = tested on: X4-tropic HIV-1 NL4-3 V3 variants; experiment: Infection of P4R5 indicator cells with NL4-3 V3 recombinants, X4-tropic variants; assay type: cell-based
From the text: as §5, §6

dual-tropic HIV variants = experiment: Replication of HIV isolates in human PBMC (RT activity), dual-tropic variants; assay type: cell-based
Protocol: as §3, §4

[4] = tested on: chimeric onco-lentivirus (Mu-HIV) carrying the MLV envelope protein; experiment: Replication of chimeric onco-lentivirus in human PBMC (RT activity); assay type: cell-based
Protocol: as §3, §4

[5] = tested on: R5-tropic HIV-1 NL4-3 V3 variants; experiment: Infection of P4R5 indicator cells with NL4-3 V3 recombinants, R5-tropic variants; assay type: cell-based; settings: 50 ng of p24, luciferase test
From the text: as §5, §6

blood cells = experiment: Cytotoxic effect on the blood cells
X4-tropic HIV variants = experiment: Replication of HIV isolates in human PBMC (RT activity), X4-tropic variants; assay type: cell-based
Protocol: as §3, §4

HIV-1 = settings: three days after infection
Protocol: FIG. 2: Influence of synthetic VIRIP on the infection of CEMx174-SEAP indicator cells (left) and replication in human PBMCs (right). The cells were infected and cultured in the presence of the stated amounts of VIRIP. To determine the viral entry, the activity of the secreted alkaline phosphatase was determined in the culture supernatant of the CEMx174-SEAP cells three days after the infection.

HIV-1 NL43 = experiment: Replication of HIV-1 in human PBMCs (reverse transcriptase test in culture supernatant); assay type: cell-based
Protocol: FIG. 1: Purification of VIRIP. The purification steps are described in the text. (b) Inhibition of the replication of HIV-1 NL43 in human blood lymphocytes by fraction 1–20. The cells were stimulated with PHA for 2 days, infected with virus stocks containing 10 ng of p24, and the reverse transcriptase activity determined in the culture supernatant 9 days after the infection. The result of the infection experiments is shown.
The isolation of VIRIP was effected on the basis of its inhibitory action on the replication of HIV-1 in an assay which measures the replication of HIV-1 in human peripheral blood lymphocytes (PBMCs). Thus, aliquots of each of the individual chromatographic fractions described under Example 1 were freeze-dried and then subjected to the biological assay in amounts of from 10 ml up to 1 l of hemofiltrate equivalent. The respective fractions which gave a positive signal were subjected to further purification.
Human peripheral blood lymphocytes (PBMCs) were obtained from whole blood using density gradient centrifugation in Ficoll. The cells were prestimulated for two days (RPMI medium, 20% FKS, 100 U/ml IL-2, 5 μg/ml phytohemagglutinin [PHA]). Then, the PBMCs were sedimented by centrifugation at 1200 rpm for 5 min, taken up in PHA-free RPMI medium (20% FKS, 100 U/ml IL-2) and seeded in 96-well flat-bottomed plates in a volume of 80 μl in concentrations of about 150,000 cells per well.
On the following day, aliquots of the individual chromatographic steps described under Example 1 were supplied in amounts of from 10 ml up to 1 l of hemofiltrate equivalent. Thus, the freeze-dried chromatographic fractions were taken up in water and pipetted to the PBMCs in various concentrations in a total volume of 10 μl. After 2 hours of incubation at 37° C., the cells were infected by the addition of 10 μl of HIV-1 virus stock containing from 0.1 to 10 ng of p24 antigen. Subsequently, 50 μl of the culture medium was replaced every 2 days by fresh medium which additionally contained the corresponding peptide fractions. The production of HIV particles at different times (after 9, 12 and 18 days) from the infection of the cells was quantified in a reverse transcriptase (RT) test. The RT test measures the activity of reverse transcriptase in a cell-free culture supernatant, which is thus a measure of the production of viral particles and viral replication in the PBMC cultures. Alternatively, the viral production was determined in p24 antigen ELISA.

“LEAIPMSIPPEVKFNKPFVF [VIRIP, 20-amino-acid fragment (amino acids 353 to 372) of human alpha-1-antitrypsin, isolated from hemofiltrate and also chemically synthesized]” was tested. Which “concentration inhibiting the HIV-1 P59S isolate by 50%” value [1] did it give?
The value was 40 µg/mL.

What about the “concentration inhibiting the HIV-1 P59S isolate by 90%” value [1] of the same sequence?
Its value is 180 µg/mL.

What about the “concentrations required for inhibiting the 92TH isolate relative to P59S” value (R5-tropic 92TH isolate) of the same sequence?
Its value is “about twofold higher concentrations”.

What about the “inhibitory effects on R5-tropic forms” value (R5-tropic forms) of the same sequence?
Its value is “lesser”.

What about the “inhibition of X4/R5-tropic variants” value [2] of the same sequence?
The value was “inhibited”.

What about the “efficiency of inhibition of X4-tropic variants having a strongly positively charged V3 loop as compared with R5-tropic or dual-tropic isolates” value [3] of the same sequence?
Its value is “inhibited more efficiently”.

And the “inhibition of X4-tropic variants” value ([3]; 50 ng of p24, luciferase test)?
The value was “inhibited”.

What about the “suppression of replication of dual-tropic HIV variants” value (dual-tropic HIV variants; 100 μg/ml) of the same sequence?
Its value is “at least partially”.

What about the “suppression of replication of dual-tropic HIV variants” value (dual-tropic HIV variants; 1000 μg/ml) of the same sequence?
Its value is “completely”.

And the “inhibition of chimeric onco-lentivirus (Mu-HIV)” value [4]?
Its value is “not inhibited”.

What about the “inhibition of R5-tropic variants” value [5] of the same sequence?
Its value is “inhibited”.

What about the “cytotoxic effect on the blood cells” value (blood cells) of the same sequence?
Its value is “does not exert any cytotoxic effect”.

What about the “suppression of replication of X4-tropic HIV variants” value (X4-tropic HIV variants; 100 μg/ml) of the same sequence?
Its value is “at least partially”.

And the “suppression of replication of X4-tropic HIV variants” value (X4-tropic HIV variants; 1000 μg/ml)?
The value was “completely”.

And the “inhibition of the HIV-1 infection of CEMx174-SEAP indicator cells” value (HIV-1)?
The value was “dose-dependent inhibition”.

What about the “inhibition of the replication of HIV-1 in PBMCs” value (“inhibition … in PBMCs” below) (HIV-1 NL43; listed as VIRIP from hemofiltrate) of the same sequence?
Its value is “effectively block”.

And the “inhibition … in PBMCs” value (HIV-1 NL43; listed as VIRIP purified from hemofiltrate)?
Its value is “dose-dependent inhibition”.

And the “inhibition … in PBMCs” value (HIV-1 NL43; listed as chemically synthesized VIRIP)?
Its value is “dose-dependent inhibition”.

What about the “inhibition … in PBMCs” value (HIV-1 NL43; listed as synthetically prepared VIRIP) of the same sequence?
The value was “dose-dependent suppression”.

What about the “inhibition … in PBMCs” value (HIV-1 NL43; listed as synthetically prepared peptide) of the same sequence?
The value was “effectively block”.

Source: patent publication US7037896B1, “Peptide (VIRIP) which inhibits a circulating virus in humans and the use thereof” (priority 1999, dated 2006)
